Measurements taken from PMC10294756 (Journal of Enzyme Inhibition and Medicinal Chemistry, 2023).

How the values were obtained:
[1] = system: HCC cell lines (HepG2, HuH7, and SMMC-7721); test: MTT assay, results stated over the three HCC cell lines; type: cell-based; conditions: Homo sapiens, 48 h, read-out: IC50 against HCC cells (span over cell lines)
HuH7 [2] = test: MTT assay, HuH7 cells; type: cell-based, human; conditions: Homo sapiens, Huh-7, 48 h, read-out: IC50 HuH7
[3] = system: transcriptional activity of Nur77 in Hela cells; test: Dual-luciferase reporter assay; type: cell-based; conditions: 24 h treatment
HepG2 cells [4] = test: Cell cycle analysis by flow cytometry, HepG2; type: cell-based, human; conditions: 10 h
In vivo PK study = test: In vivo PK study; set-up: species or system Sprague-Dawley (SD) rats
[5] = system: cleaved-PARP, LC3-II and Nur77 in HepG2 cells; test: Western blotting, HepG2 cells; type: cell-based, human
HepG2 cells [6] = test: Annexin V-FITC/PI apoptosis detection assay, HepG2; type: cell-based, human; conditions: HepG2, 1.0 μM, 24 h
A549-Nur77-/- cells = test: Cell cycle analysis by flow cytometry, A549 Nur77-/-; type: cell-based, human; conditions: 10 h
HepG2 [7] = test: MTT assay, HepG2 cells; type: cell-based, human; conditions: Homo sapiens, HepG2, 48 h, read-out: IC50 HepG2
SMMC-7721 = test: MTT assay, SMMC-7721 cells; type: cell-based, human; conditions: Homo sapiens, SMMC-7721, 48 h, read-out: IC50 SMMC-7721
HuH7 cells [8] = test: Annexin V-FITC/PI apoptosis detection assay, HuH7; type: cell-based, human; conditions: 24 h
LO2 = test: MTT assay, normal hepatocyte LO2; type: cell-based, human; conditions: Homo sapiens, L02, 48 h, read-out: IC50 LO2, normal liver cell line, MTT, 48 h
HuH7 cells [9] = test: Cell cycle analysis by flow cytometry, HuH7; type: cell-based, human; conditions: 10 h
HuH7 [10] = test: Colony formation assay, HuH7; type: cell-based, human; conditions: HuH7, one week
HepG2 [11] = test: Colony formation assay, HepG2; type: cell-based, human; conditions: HepG2, one week
[12] = system: cleaved-PARP and LC3-II in HuH7 cells; test: Western blotting, HuH7 cells; type: cell-based, human; conditions: HuH7, 24 h
[13] = female, Sprague-Dawley, rat, plasma, iv, 2 mg/kg
[14] = female, Sprague-Dawley, rat, plasma, po, 20 mg/kg

- IC50 [1]: 2.33 to 7.68 µM
- IC50 (HuH7 [2]): 4.09 ± 0.89 µM
- CL (In vivo PK study; SD rats, p.o. 20 mg/kg): 1986.3 ± 307.2 mL/min/kg
- Vz (In vivo PK study; SD rats, p.o. 20 mg/kg): 192.55 ± 22.13 L/kg
- AUC(0-inf) (In vivo PK study; [13]): 247 ± 72.6 ng·h/mL
- Cmax (In vivo PK study; [13]): 293 ± 45.5 ng/mL
- Tmax (In vivo PK study; [13]): 0.08 h
- Vd (In vivo PK study; [13]): 22.2 ± 10.1 L/kg
- clearance (In vivo PK study; [13]): 143 mL/min/kg
- half-life (In vivo PK study; [13]): 1.54 ± 0.35 h
- AUC(0-inf) (In vivo PK study; [14]): 170 ± 25.4 ng·h/mL
- Cmax (In vivo PK study; [14]): 19.6 ± 0.97 ng/mL
- Tmax (In vivo PK study; [14]): 5.83 ± 3.75 h
- half-life (In vivo PK study; [14]): 1.13 ± 0.09 h
- IC50 (HepG2 [7]): 2.33 ± 0.14 µM
- IC50 (SMMC-7721): 7.68 ± 1.3 µM
Structure (SMILES): Cc1cc(Nc2ccc(C(=O)N/N=C/c3scnc3C)cc2)c2cccc(O)c2n1 [TMHA37, (E)-4-((8-hydroxy-2-methylquinolin-4-yl)amino)-N'-((4-methylthiazol-5-yl)methylene)benzohydrazide]
- reporter activity [3]: significantly increased the reporter fluorescence intensity in a dose-dependent manner
- cells in G2 (G2/M) (HepG2 cells [4]; HepG2, TMHA37 1 μM): 26.72%
- cells in G2 (G2/M) (HepG2 cells [4]; HepG2, TMHA37 10 μM): 63.17%
- Nur77 protein expression in cytoplasm and nucleus ([5]; HepG2, 10 μM, 3 h): increased the protein expression levels of Nur77 in both cytoplasm and nuclear
- LC3-II level ([5]; HepG2, 24 h): dose-dependently increased the level of LC3-II
- cleaved-PARP level ([5]; HepG2, 24 h): dose-dependent upregulation of cleaved-PARP
- apoptotic cells (HepG2 cells [6]): 6.42%
- TMHA37-caused G2/M arrest in Nur77-knockdown A549 cells compared to control cells (A549-Nur77-/- cells): significantly decreased
- apoptotic cells (HuH7 cells [8]; HuH7, 1.0 μM): 12.82%
- apoptotic cells (HuH7 cells [8]; HuH7, 10.0 μM): 69.50%
- IC50 (LO2): 21.2 ± 1.79 µM
- cells in G2 (G2/M) (HuH7 cells [9]; HuH7, TMHA37 1 μM): 20.07%
- cells in G2 (G2/M) (HuH7 cells [9]; HuH7, TMHA37 10 μM): 48.26%
- colony formation (HuH7 [10]): significantly and dose-dependently inhibited the colony formation
- colony formation (HepG2 [11]): significantly and dose-dependently inhibited the colony formation
- LC3-II level [12]: dose-dependently increased the level of LC3-II
- cleaved-PARP level [12]: dose-dependent upregulation of cleaved-PARP
